Some test systems named below: NCI-H522; MDA-MB-231; KM12; OVCAR-8; RXF 393; UACC-257; ACHN; SNB-19; NCI-H460; DU-145; 786-0; MCF7; HCT-15; RPMI-8226; TK-10; EKVX; UACC-62; SK-MEL-28; CAKI-1; MDA-N.
Holding throughout (assay): DTP human tumour cell line panel, 48 h

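Grown in 96-well plates, cells were treated for 48 hours with each compound at five concentrations. Insufficient inhibition: endpoint recorded as highest concentration tested. GI50: concentration for 50% inhibition of growth.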 Activity calls are given as the source filed them. No stated cut-off is given here; in the data, active = GI50 up to about 1.1 µM and inactive = higher.

The term GI50 denotes the concentration giving 50% growth inhibition. For the molecule `S=C(Nc1ccc2cn[nH]c2c1)Nc1ccc2cn[nH]c2c1`, the GI50 is 34.1 µM (inactive) in the assay on NCI-H522; > 100 µM (inactive) with MDA-MB-231; 53.7 µM (inactive) with KM12; 72.3 µM (inactive) in the assay with OVCAR-8; > 100 µM (inactive) in the assay with RXF 393; 96.6 µM (inactive) with UACC-257. The GI50 was 51.8 µM (inactive) in the assay on ACHN; > 100 µM (inactive) with SNB-19; 43 µM (inactive) in the assay with NCI-H460; > 100 µM (inactive) in the assay with DU-145; 98.2 µM (inactive) with 786-0; 82 µM (inactive) in the assay on MCF7. Moreover, the GI50 in the assay on HCT-15 was 63.5 µM; in the assay with RPMI-8226, 38 µM (inactive); with TK-10, 48.1 µM (inactive); in the assay with EKVX it was 54 µM (inactive); in the assay with UACC-62, 48.5 µM (inactive); in the assay on SK-MEL-28 it was > 100 µM (inactive). Further, the values for the GI50 with CAKI-1 and with MDA-N were > 100 µM (inactive) and 57.4 µM (inactive), respectively.

With `COC1(OC)C[C@H](C)[C@@]23O[C@]24C2=CC(=O)C=CC2=N[C@H]3C#C/C=C\C#C[C@]14O`, the GI50 in the assay with NCI-H522 was 0.0469 µM (active); with MDA-MB-231, 0.621 µM (active); in the assay with KM12 it was 0.474 µM (active); with OVCAR-8, 0.659 µM (active); in the assay on RXF 393, 0.537 µM (active); in the assay with UACC-257 it was 1.49 µM (inactive). The GI50 in the assay with ACHN was 0.259 µM (active); in the assay with SNB-19 it was 1.55 µM (inactive); in the assay with NCI-H460 it was 0.344 µM (active); with DU-145, 1.04 µM (active); in the assay on 786-0, 0.0675 µM (active); with MCF7 it was 0.276 µM (active). Besides, the GI50 with HCT-15 is 0.432 µM; in the assay with RPMI-8226 it was 0.123 µM (active); in the assay with TK-10, 0.893 µM (active); in the assay on EKVX, 0.578 µM (active); in the assay with UACC-62, 1.19 µM (inactive); with SK-MEL-28, 1.08 µM (active). The GI50 in the assay on CAKI-1 is 0.284 µM (active); with MDA-N, 1.08 µM (active).

For the molecule `O=C1/C(=C/c2ccccc2)CCc2ccc([N+](=O)[O-])cc21`, the GI50 in the assay on NCI-H522 is 3.31 µM (inactive); with MDA-MB-231, 69.3 µM (inactive); in the assay on KM12 it was 42.3 µM (inactive); with OVCAR-8, 82.6 µM (inactive); with RXF 393 it was 23.8 µM (inactive); in the assay with UACC-257, 39.5 µM (inactive). The GI50 in the assay on ACHN is 40.4 µM (inactive); in the assay on SNB-19 it was 27.2 µM (inactive); with NCI-H460, > 100 µM (inactive); in the assay on DU-145, > 72.3 µM (inactive); with 786-0, 28.4 µM (inactive); with MCF7 it was 4.17 µM (inactive). Moreover, the GI50 in the assay on HCT-15 was 39.7 µM; in the assay with RPMI-8226, 0.492 µM (active); with TK-10 it was 60.1 µM (inactive); in the assay on EKVX it was > 91.8 µM (inactive); with UACC-62, 31 µM (inactive); in the assay with SK-MEL-28, > 81.8 µM (inactive). The GI50 is > 100 µM (inactive) in the assay on CAKI-1 and 35 µM (inactive) in the assay with MDA-N.

For the molecule `COc1cc2cc(C(=O)N3CC(CCl)c4c3cc(NCCN)c3ccccc43)[nH]c2c(OC)c1OC` (stereo not given), the GI50 in the assay on NCI-H522 is < 0.01 µM (active); in the assay with MDA-MB-231, < 0.01 µM (active); in the assay with KM12, < 0.01 µM (active); in the assay on OVCAR-8, < 0.01 µM (active); with RXF 393 it was < 0.01 µM (active); with UACC-257 it was 0.0105 µM (active). Also, the GI50 in the assay on ACHN, in the assay with SNB-19, with NCI-H460, with DU-145, in the assay on 786-0 and in the assay with MCF7 was < 0.01 µM (active) in each case. The GI50 was 0.0105 µM in the assay on HCT-15; < 0.01 µM (active) in the assay with RPMI-8226; < 0.01 µM (active) with TK-10; < 0.0126 µM (active) in the assay with EKVX; < 0.01 µM (active) in the assay on UACC-62; 0.0134 µM (active) in the assay with SK-MEL-28. In addition, the concentration for 50% growth inhibition (GI50) is < 0.01 µM (active) in the assay on CAKI-1 and < 0.0105 µM (active) with MDA-N.

In the case of `C[N+]12C=CC=C1C(N1CCCC1)c1sc(-c3ccc(Cl)cc3)cc12` (stereo not given), the GI50 was 10.4 µM (inactive) with NCI-H522; 18.3 µM (inactive) with MDA-MB-231; 17 µM (inactive) in the assay with KM12; 16.9 µM (inactive) in the assay with OVCAR-8; 17.9 µM (inactive) in the assay with RXF 393; 15.5 µM (inactive) with UACC-257. Also, the GI50 was 46 µM (inactive) in the assay on ACHN; 13.6 µM (inactive) in the assay on SNB-19; 18.1 µM (inactive) in the assay on NCI-H460; 16.9 µM (inactive) with DU-145; 15.4 µM (inactive) with 786-0; 14.7 µM (inactive) in the assay on MCF7. The GI50 was 30.5 µM with HCT-15; 10.6 µM (inactive) in the assay with RPMI-8226; 19.6 µM (inactive) in the assay with TK-10; 22.6 µM (inactive) in the assay with EKVX; 15.1 µM (inactive) in the assay on UACC-62; 17.2 µM (inactive) with SK-MEL-28. Further, the figures for the GI50 in the assay on CAKI-1 and in the assay on MDA-N were > 100 µM (inactive) and 15.8 µM (inactive), respectively.

On to `COc1cccc(C2c3cc4c(cc3OC(N3CCCCC3)C2C)OCO4)c1O` (stereo not given), for which the GI50 with NCI-H522 was 2.74 µM (inactive); in the assay on MDA-MB-231, 11.2 µM (inactive); with KM12, 4.47 µM (inactive); in the assay with OVCAR-8 it was 5.9 µM (inactive); in the assay with RXF 393, 3.25 µM (inactive); in the assay with UACC-257 it was 8.04 µM (inactive). The GI50 with ACHN was 6.55 µM (inactive); in the assay with SNB-19, 7.93 µM (inactive); in the assay on NCI-H460 it was 4.13 µM (inactive); in the assay with DU-145 it was 7.53 µM (inactive); in the assay with 786-0 it was 4.72 µM (inactive); with MCF7, 5.6 µM (inactive). In addition, the GI50 in the assay with HCT-15 is 4.21 µM; in the assay on RPMI-8226, 3.21 µM (inactive); in the assay on TK-10 it was 13.8 µM (inactive); with EKVX it was 14.7 µM (inactive); in the assay with UACC-62, 5.92 µM (inactive); with SK-MEL-28 it was 6.27 µM (inactive). Moreover, the GI50 in the assay on CAKI-1 was 5.48 µM (inactive); in the assay with MDA-N, 2.3 µM (inactive).

Regarding `COc1ccc(CCN2C(=O)C=CC2=O)cc1OC`, the GI50 in the assay on NCI-H522 was 1.52 µM (inactive); in the assay with MDA-MB-231 it was 14.1 µM (inactive); in the assay on KM12, 19.6 µM (inactive); in the assay with OVCAR-8, 19.8 µM (inactive); in the assay with RXF 393 it was 4.9 µM (inactive); with UACC-257 it was 16.8 µM (inactive). Also, the GI50 with ACHN was 1.77 µM (inactive); in the assay with SNB-19, 19.5 µM (inactive); in the assay on NCI-H460, 21.5 µM (inactive); in the assay with DU-145, 16.5 µM (inactive); in the assay with 786-0, 3.07 µM (inactive); with MCF7, 17.3 µM (inactive). The GI50 was 1.87 µM in the assay on HCT-15; 1.77 µM (inactive) in the assay with RPMI-8226; 15.2 µM (inactive) in the assay on TK-10; 19.2 µM (inactive) in the assay with EKVX; 17.3 µM (inactive) with UACC-62; 16.4 µM (inactive) with SK-MEL-28. For the same molecule, the GI50 in the assay on CAKI-1 was 13.3 µM (inactive); in the assay on MDA-N, 17.8 µM (inactive).

For the molecule `c1ccc(/N=C2\c3ccccc3CN2c2ccccc2)cc1`, the GI50 with NCI-H522, in the assay with MDA-MB-231, with KM12, in the assay with OVCAR-8, in the assay on RXF 393 and in the assay on UACC-257 was > 100 µM (inactive) each time. The GI50 in the assay on ACHN, in the assay on SNB-19, in the assay with NCI-H460, with DU-145, in the assay on 786-0 and in the assay with MCF7 was > 100 µM (inactive) each time. The GI50 was greater than 100 µM with HCT-15; > 100 µM (inactive) in the assay with RPMI-8226; > 100 µM (inactive) with TK-10; > 100 µM (inactive) with EKVX; > 100 µM (inactive) in the assay on UACC-62; > 100 µM (inactive) in the assay on SK-MEL-28. Moreover, the GI50 in the assay with CAKI-1 and in the assay on MDA-N was > 100 µM (inactive) throughout.

For the molecule `CC(C)(CO[C@H]1C[C@H]2CC[C@@]1(C)C2(C)C)[N+](=O)[O-]`, the GI50 in the assay on NCI-H522 was 20.4 µM (inactive); with MDA-MB-231, 18.1 µM (inactive); in the assay on KM12, 17.4 µM (inactive); in the assay with OVCAR-8 it was 22.6 µM (inactive); in the assay with RXF 393, 11 µM (inactive); in the assay with UACC-257, 18.5 µM (inactive). Moreover, the GI50 is 33.6 µM (inactive) in the assay with ACHN; 14.1 µM (inactive) in the assay on SNB-19; 19.6 µM (inactive) with NCI-H460; 17.3 µM (inactive) in the assay on DU-145; 14.3 µM (inactive) with 786-0; 22.9 µM (inactive) in the assay on MCF7. The GI50 in the assay with HCT-15 was 22.6 µM; in the assay on RPMI-8226 it was 17.7 µM (inactive); with TK-10 it was 17.1 µM (inactive); in the assay with EKVX, 16.7 µM (inactive); in the assay on UACC-62, 19.9 µM (inactive); in the assay on SK-MEL-28, 18.5 µM (inactive). Also, the GI50 is 20 µM (inactive) in the assay on CAKI-1 and 15.6 µM (inactive) in the assay with MDA-N.

As to `Clc1ccccc1C(Nc1ncccn1)Nc1ncccn1`, the GI50 in the assay with NCI-H522, in the assay on MDA-MB-231, with KM12, with OVCAR-8, in the assay on RXF 393 and in the assay on UACC-257 was > 100 µM (inactive) each time. Further, the GI50 in the assay on ACHN, with SNB-19, with NCI-H460, in the assay on DU-145, in the assay on 786-0 and in the assay with MCF7 was > 100 µM (inactive) each time. In addition, the GI50 was greater than 100 µM with HCT-15; > 100 µM (inactive) in the assay with RPMI-8226; > 100 µM (inactive) with TK-10; > 100 µM (inactive) in the assay with EKVX; > 100 µM (inactive) with UACC-62; > 100 µM (inactive) with SK-MEL-28. Besides, the GI50 in the assay with CAKI-1 and with MDA-N was > 100 µM (inactive) in each case.

The values are drawn from ChEMBL document CHEMBL1201862, “PubChem BioAssay data set” (2004).
